# Measured values: US20200163885A1, “COMPOSITION FOR DELIVERING PHYSIOLOGICALLY ACTIVE INGREDIENTS INTO BLOOD VESSEL” (LEMONEX INC., priority 2017, published 2020)
# Experiments:
# [1] = Bioactive material loading capacity of porous silica particles; format: physicochemical; conditions: particles of Example 2-(3)-4)-(i), distilled water, 1 hour
# Description: After loading the negatively charged porous silica particles of Example 2-(3)-4)-(i) with doxorubicin, the absorbance of the supernatant was measured to determine an amount of loaded doxorubicin, and a loading rate (“loading capacity”) of the particles was calculated.
# Specifically, 5 mg of porous silica particle powders and 2 mg of doxorubicin were mixed in 1 ml of distilled water, and then settled at room temperature for 1 hour. Subsequently, the solution was centrifuged at 8000 rpm for 10 minutes to settle the particles, and absorbance (λab=480 nm) of the supernatant was measured to determine an amount of the low molecular weight compound remaining in the supernatant without loading. Further, an amount of the loaded low molecular weight compound was calculated (an amount of the loaded low molecular weight compound=an amount of initially added low molecular weight compound−an amount of the low molecular weight compound remaining in the supernatant) so as to determine the loading capacity (loading capacity=bioactive material/porous silica particles, w/w %)
# After loading the negatively charged porous silica particles in Example 2-(3)-4)-(i) with irinotecan, absorbance of the supernatant was measured and an amount of loaded irinotecan was calculated, and the loading capacity thereof was determined. […]
# [2] = test system: HepG2 cells; experiment: Delivery through intravenous injection, HepG2 Xeno; format: in vivo, Balb/C nude mouse; conditions: loaded on particles of Example 2-(3)-4)-(i), tail vein, 4 mg/kg
# Description: Xeno was prepared in Balb/C nude mouse using HepG2 cells as a human liver cancer cell line. […] An injecting dose of doxorubicin was 4 mg/kg (mouse weight), and 80 μg of doxorubicin and 160 μg of particles were used based on an average body weight of 20 g of 5 to 8-week old Balb/C nude mouse.
# [3] = Release of bioactive materials from loaded porous silica particles; format: physicochemical; conditions: doxorubicin loaded on porous silica particles, SBF (pH 7.4), 37° C.
# Description: 5 mg of porous silica particles loaded with doxorubicin ([…]) was dispersed in SBF (pH 7.4) (total volume: 1 ml), and then the solution was placed in a 1.5 ml tube and maintained in a dynamic condition of performing horizontal agitation at 20 rpm and 37° C. At each time point, the porous silica solution loaded with doxorubicin was settled using a centrifuge, and the absorbance (λa,b=480 nm) of the supernatant was measured to determine an amount of released doxorubicin.
# 10 mg of porous silica particles loaded with doxorubicin (2 mg) were dispersed in SBF (pH 7.4) inside a dialysis membrane (total volume: 0.5 ml), and then the dialysis membrane was placed in a 1.5 ml SBF tube (pH 7.4) and maintained in static conditions at 37° C. At each time point, the porous silica solution loaded with doxorubicin was settled using a centrifuge, and the absorbance (λab=480 nm) of the supernatant was measured to determine an amount of released doxorubicin.
# The solution was maintained in a dynamic condition of performing horizontal agitation at 200 rpm and 37° C.
# […] of porous silica particles loaded with sorafenib (0.1 Mg) were dispersed in 10 ml of 1×PBS. The solution was maintained under a dynamic condition of performing horizontal agitation at 200 rpm and 37° C. At each time point, the porous silica solution loaded with sorafenib was settled using a centrifuge, and the absorbance (λab=270 nm) of the supernatant was measured to determine an amount of released sorafenib.
# 0.1 mg of particles loaded with retinoic acid were placed in a PBS (pH 7.4) solution containing 5% ethanol and maintained at 37° C. while performing horizontal agitation.
# 5 mg of particles loaded with p53 peptide were placed in 5 ml of 1×PBS containing 10% FBS or 5 ml of 1×PBS, and maintained under a dynamic environment while rotating at 20 rpm and 37° C. At each time point, centrifugation was conducted at 8500 rpm and a fluorescence intensity of 5(6)-carboxyfluorescein (FAM), which is a fluorescent label bound to p53 peptide from the supernatant ([…]: 480 nm, Emission: 520 nm).
# 10 μl of porous silica particles loaded with Cy5-siRNA was resuspended in SBF (pH 7.4, 37° C.) (total volume: 0.5 ml) and placed in a 1.5 ml tube. Release of siRNA was performed while horizontally agitating at 60 rpm and 37° C. At each time point, the siRNA-loaded porous silica solution was settled using a centrifuge, and a fluorescence intensity of the supernatant was measured.
# 20 μg of porous silica particles loaded with siRNA (1 μg) of the above 1) was dispersed in SBF (pH 7.4) inside a dialysis membrane (total volume: 0.5 ml), and the dialysis membrane was placed in a 1.5 ml SBF (pH 7.4) tube, and static conditions at 37° C. were maintained. At each time point, the siRNA-loaded porous silica solution was settled using a centrifuge, and the absorbance (λab=480 nm) of the supernatant was measured to determine an amount of released siRNA.
# 20 μg of porous silica particles loaded with pDNA (1 μg) were dispersed in SBF (pH 7.4) inside a dialysis membrane (total volume 0.5 ml), and the dialysis membrane was placed in a 1.5 ml SBF (pH 7.4) tube while shaking at 60 rpm and 37° C. At each time point, the porous silica solution loaded with pDNA was settled using a centrifuge and the absorbance (λab=480 nm) of the supernatant was measured to determine an amount of released pDNA.
# Porous silica particles loaded with linear DNA (3 μg of linear DNA, 100 μg of porous silica particles) were resuspended in PBS (pH 7.4, 37° C.), and a dialysis membrane having a pore diameter of 20 kDa (the same tube as the tube in FIG. 18). After placing the suspension in the membrane, a dialysis tube was soaked in 1.5 ml of PBS.
# [4] = static condition, dialysis membrane
smiles,measurement,setting,value
COc1cccc2c1C(=O)c1c(O)c3c(c(O)c1C2=O)C[C@@](O)(C(=O)CO)C[C@@H]3O[C@H]1C[C@H](N)[C@H](O)[C@H](C)O1 [doxorubicin],loading of doxorubicin on the particles (colour of solution after centrifugation),[1],mostly loaded on the particles
same,tumor growth inhibition compared to injection of the material alone,[2],excellent
same,time to reach a release rate of 50%,"[3]; dynamic condition, 20 rpm",about 1.5 hours
same,time up to which continuously released,"[3]; dynamic condition, 20 rpm",≥ 12 h
same,time to reach a release rate of 50%,[3]; [4],about 6 days
same,time up to which continuously released,[3]; [4],≥ 480 h
